# From patent US5594144A, “Tropolone derivatives and pharmaceutical composition thereof for preventing and treating ischemic diseases” (The Upjohn Company, priority 1990, dated 1997)
# Like-named read-outs stand apart in the source and are kept apart here.
# What was measured:
# [1] = system: Brain microsomal fractions; assay: in vitro Anti-lipid peroxidation effect (TBAR production, Fe3+-ADP/NADPH); format: biochemical, rat (SD strain, male)
# Description: 1. in vitro Anti-lipid peroxidation effect
# Brain microsomal fractions were prepared from male rats of SD strain, and a portion (0.2 mg protein) was incubated at 37° C. for 15 minutes with a mixture of Fe^3+ (0.1 mM)--ADP (0.5 mM) in the presence or absence of the test compound, in final volume of 1 ml of 10 mM HEPES, 150 mM KCl, 0.2 mM NADPH, pH 7.4. After incubation, 1.5 ml of TCA-TBA-HCl reagent (16.7% trichloroacetic acid, 0.4% thiobarbituric acid, 0.278N hydrochloric acid) was added and the reaction mixture was heated in a boiling water for 15 minutes. After cooling in ice-bath, the reaction mixture was centrifuged, and the absorbance of the supernatant at 535 nm was measured. The amount of thiobarbituric acid reactive substance (TBAR) was obtained by calculation using an extinction coefficient of 1.56×10^5 […]. […] The results are shown in Table 1A for compounds of the formulas IA, IB, and IC, respectively. The compounds with highest inhibition rate have the greatest anti-lipid peroxidation effect.
# [2] = system: pig right coronary artery; assay: in vitro Ca-antagonism (high K+ induced 45Ca-influx); format: cell-based; details: Sus scrofa, K+ 75 mM
# Description: 2. in vitro Ca-antagonism
# A strip of pig right coronary artery was depolarized with high K^+ (75 mM) for 30 minutes to induce voltage dependent ^45 Ca-influx. The extracellular ^45 Ca was chelated by adding EGTA and removed by washing, then the strip was lysed at 100° C. ^45 Ca in this lysate was measured as intracellular ^45 Ca by a scintillation counter. The concentration of the test compound was 10^-7, 10^-6, 10^-5 M, and applied until depolarization by K^+ was completed. Ratio of inhibition at various concentrations of the test compounds for increasing the intracellular ^45 Ca by K^+ was determined. The compound with high inhibition ratio has strong Ca-antagonism.
# porcine coronary artery = assay: in vitro Coronary vasodilation effect (PGF2α-contracted strip); format: cell-based; details: Sus scrofa; 25% of papaverine-induced relaxation; read-out: Coronary Vasodilation (ED25 μM)
# Description: 3. in vitro Coronary vasodilation effect
# The right portion of a porcine coronary artery was isolated, and cut into 3 mm wide strip which was suspended in a organ bath filled with 20 ml of Krebs--Henseleit solution (37° C.). During the experiment the bath solution was aerated with 95% O2 +5% Co2. The change in tension was measured using an isometric transducer. After load tension was stabilized, the preparation was contracted with PGF2α (10^-6 -[…]). After the contract level had stabilized the test compound was cumulatively applied from 10^-8 to 10^-5 M. Papaverine (10^-4 M) was used to obtain maximal relaxation at the end of the experiment. The result was expressed as the percentage of papverine-induced relaxation, and the concentration of the test compound which gave 25% relaxation of papaverine-induced relaxation was defined as ED25. The compound with low ED25 value has great coronary vasodilation effect.
# [3] = system: Mouse Cerebral Ischemia/Reperfusion; assay: in vivo Behavior test (Mouse Cerebral Ischemia/Reperfusion Test); design: species or system mouse (ICR strain, male)
# Description: Bilateral common carotid arteries of both sides of ICR strain male mice (about 8 weeks old) were occluded for 5 minutes while lightly anesthetized, then blood was reperfuged. The test compounds were intraperitoneally administered 10 minutes before occlusion and within 3 hours after reperfusion. Since a day after reperfusion, behavior disorder was evaluated by spontaneous motor activity of exploratory behavior, traction test and passive avoidance test. That is, spontaneous motor activity was evaluated as follows. Motor activity was measured by tilting cage method for 30 minutes since immediately after a mouse was placed in a measurement cage. If the motor activity was at least more than (average of spontaneous motion of the group received solvent) +2×SD, the compound was evaluated as "active." In traction test, both fore limbs of the mouse were placed on the horizontally stretched wire. If the mouse put its hind limb within 2 seconds, the compound was estimated as "active.". In passive avoidance test, a step-through type apparatus was used, and as acquisition trial of blood reperfusion, electrical shock (about 0.5 mA, 3 seconds) was given to the mice as soon as the whole body of mice entered the black room and on the next day test trial was carried out. The mouse which stayed in a light room for at least 300 seconds was estimated as an active example. In all tests, the test compound which provided at least 50% of active animals was determined as "active." The results are shown in Table 5.
# ventricular arrhythmia = assay: in vivo Ischemic heart/reperfusion test; details: Rattus norvegicus, iv
# Description: 4. in vivo Ischemic heart/reperfusion test
# Experiment was carried out using rats anesthetized with pentobarbital under artificial respiration. After the forth rib was excised, heart was exposed by thoracotomy, and the thread was placed under the left coronary artery at it origin. Then, the heart was returned and a thread was passed in a tube. Compounds were applied through tail vein. After 10 minutes, the thread in the tube was pulled to occlude coronary artery. Five minutes after occlusion, the thread was loosened again for reperfusion. Then, ventricular arrhythmia was recorded on electrocardiogram (lead II), by sticking needle electrodes into a right fore-limb and a left hind-limb. Duration time of ventricular tachycardia and occurrence of ventricular fibrillation caused after reperfusion were compared between a group receiving the test compounds and a similarly treated vehicle group. If either of two parameters of the group that received the test compound became less than half of that of the group that received the vehicle, the test compound was estimated as "active".
# [4] = read-out: Minimal Effective Dose (mg/kg, i.v.)
structure (smiles),measurement,setting,value
"CC(C)c1ccc(CN2CCN(C(c3ccccc3)c3ccc(Cl)cc3)CC2)c(=O)c(O)c1 (stereo not drawn) [Compound 1A, 7-[4-(4-chlorobenzhydryl)piperazino-1-methyl]-2-hydroxy4-isopropyl-2,4,6-cycloheptatrien-1-one]",Anti-Lipid Peroxidation (% inhibition) 10 μM,[1],6.7%
same,Anti-Lipid Peroxidation (% inhibition) 50 μM,[1],< 21.3%
same,inhibition at 10 µM,[2],44%
same,EC25,porcine coronary artery,> 10000 nM
same,minimal effective dose,"[3]; ip, route cell empty (method: intraperitoneally)",> 10 mg/kg
"COc1cc(C(C)C)ccc(CN2CCN(C(c3ccccc3)c3ccc(Cl)cc3)CC2)c1=O (stereo not drawn) [Compound 2A, 7-[4-(4-chlorobenzhydryl)piperazino-1-methyl]-4-isopropyl-2-methoxy-2,4,6-cycloheptatrien-1-one]",Anti-Lipid Peroxidation (% inhibition) 10 μM,[1],28.8%
same,Anti-Lipid Peroxidation (% inhibition) 50 μM,[1],84.7%
same,inhibition at 10 µM,[2],61%
same,EC25,porcine coronary artery,1800 nM
same,minimal effective dose,ventricular arrhythmia; value marked # (methanesulfonate per footnote of Table 5),0.3 mg/kg
same,minimal effective dose,"[3]; ip, # methanesulfonate, route cell empty (method: intraperitoneally)",3 mg/kg
"COc1cc(C(C)C)ccc(C2Sc3ccccc3N2C)c1=O (stereo not drawn) [Compound 2B, 2-(2'-oxo-3'-methoxy-5'-isopropyl-3',5',7'-cycloheptatrienyl)-3-methylbenzothiazoline]",Anti-Lipid Peroxidation (% inhibition) 10 μM,[1],95.5%
same,minimal effective dose,[3]; ip,1 mg/kg
"COc1cc(C(C)C)ccc(C2Sc3ccccc3N2Cc2ccncc2)c1=O (stereo not drawn) [Compound 6B, 2-(2'-oxo-3'-methoxy-5'-isopropyl-3',5',7'-cycloheptatrienyl)-3-(4-picolyl)benzothiazoline]",Anti-Lipid Peroxidation (% inhibition) 10 μM,[1],93.1%
same,Anti-Lipid Peroxidation (% inhibition) 50 μM,[1],96.6%
same,minimal effective dose,[3]; iv,< 1 mg/kg
"COc1cc(C(C)C)ccc(C2Sc3ccccc3N2CCCN(C)CCc2ccccc2)c1=O (stereo not drawn) [Compound 10B, 2-(2'-oxo-3'-methoxy-5'-isopropyl-3',5',7'-cycloheptatrienyl)-3-[3-(N-methyl-N-phenethylamino)propyl]benzothiazoline]",Anti-Lipid Peroxidation (% inhibition) 10 μM,[1],93.0%
same,Anti-Lipid Peroxidation (% inhibition) 50 μM,[1],94.5%
same,minimal effective dose,ventricular arrhythmia; [4],< 5 mg/kg
"COc1cc(C(C)C)ccc(C2Sc3ccccc3N2CCN(C)C)c1=O (stereo not drawn) [Compound 11B, 2-(2'-oxo-3'-methoxy-5'-isopropyl-3',5',7'-cycloheptatrienyl)-3-[2-(N,N-dimethylamino)ethyl]benzothiazoline]",Anti-Lipid Peroxidation (% inhibition) 10 μM,[1],89.3%
same,minimal effective dose,ventricular arrhythmia; [4],< 5 mg/kg
same,minimal effective dose,[3]; ip,1 mg/kg
"COc1cc(C(C)C)ccc(C2Sc3ccccc3N2CCCN(C)C)c1=O (stereo not drawn) [Compound 12B, 2-(2'-oxo-3'-methoxy-5'-isopropyl-3',5',7'-cycloheptatrienyl)-3-[3-(N,N-dimethylamino)propyl]benzothiazoline]",Anti-Lipid Peroxidation (% inhibition) 10 μM,[1],89.4%
same,minimal effective dose,[3]; ip,1 mg/kg
"COc1ccc(CCOc2cc(C(C)C)ccc(CN3CCN(C(c4ccc(F)cc4)c4ccc(F)cc4)CC3)c2=O)cc1OC [Compound 16A, 7-[4-(4,4'-difluorobenzhydryl)piperazino-1-methyl]-2-[2-(3,4-dimethoxyphenyl)ethoxy]-4-isopropyl-2,4,6-cycloheptatrien-1-one]",Anti-Lipid Peroxidation (% inhibition) 10 μM,[1],19.1%
same,Anti-Lipid Peroxidation (% inhibition) 50 μM,[1],19.1%
same,inhibition at 10 µM,[2],52%
"CCOC(=O)CCNc1cc(C(C)C)ccc(CN2CCN(C(c3ccc(F)cc3)c3ccc(F)cc3)CC2)c1=O [Compound 16C, ethyl 3-{N-7-[4-(4,4'-difluorobenzhydryl)piperazino-1-methyl]-4-isopropyl-1-oxo-2,4,6-cycloheptatrien-2-ylamino}propionate]",Anti-Lipid Peroxidation (% inhibition) 10 μM,[1],29.1%
same,Anti-Lipid Peroxidation (% inhibition) 50 μM,[1],58.0%
same,inhibition at 10 µM,[2],47%
"CC(C)c1ccc(CN2CCN(C(c3ccc(F)cc3)c3ccc(F)cc3)CC2)c(=O)c(N2CCCCC2)c1 [Compound 17C, 7-[4-(4,4'-difluorobenzhydryl)piperazino-1-methyl]-4-isopropyl-2-piperidino-2,4,6-cycloheptatrien-1-one]",Anti-Lipid Peroxidation (% inhibition) 10 μM,[1],32.4%
same,Anti-Lipid Peroxidation (% inhibition) 50 μM,[1],44.1%
same,inhibition at 10 µM,[2],53%
"CC(C)c1ccc(CN2CCN(C(c3ccc(F)cc3)c3ccc(F)cc3)CC2)c(=O)c(N2CCOCC2)c1 [Compound 18C, 7-[4-(4,4'-difluorobenzhydryl)piperazino-1-methyl]-4-isopropyl-2-morpholino-2,4,6-cycloheptatrien-1-one]",Anti-Lipid Peroxidation (% inhibition) 10 μM,[1],26.7%
same,Anti-Lipid Peroxidation (% inhibition) 50 μM,[1],41.2%
same,inhibition at 10 µM,[2],84%
"CC(C)c1ccc(CN2CCN(C(c3ccc(F)cc3)c3ccc(F)cc3)CC2)c(=O)c(N2CCNCC2)c1 [Compound 19C, 7-[4-(4,4'-difluorobenzhydryl)piperazino-1-methyl]-4-isopropyl-2-(1-piperazino)-2,4,6-cycloheptatrien-1-one]",Anti-Lipid Peroxidation (% inhibition) 10 μM,[1],30.1%
same,Anti-Lipid Peroxidation (% inhibition) 50 μM,[1],89.1%
same,inhibition at 10 µM,[2],62%
"CCNc1cccnc1N1CCN(c2cc(C(C)C)ccc(CN3CCN(C(c4ccc(F)cc4)c4ccc(F)cc4)CC3)c2=O)CC1 [Compound 20C, 7-[4-(4,4'-difluorobenzhydryl)piperazino-1-methyl]-2-[4-(3-ethylamino-2-pyridyl)piperazino]-4-isopropyl-2,4,6-cycloheptatrien-1-one]",Anti-Lipid Peroxidation (% inhibition) 10 μM,[1],91.6%
same,Anti-Lipid Peroxidation (% inhibition) 50 μM,[1],93.8%
same,inhibition at 10 µM,[2],30%
"COc1cc(C(C)C)ccc(CN2C(C)CN(C(c3ccc(F)cc3)c3ccc(F)cc3)CC2C)c1=O (stereo not drawn) [Compound 21C, 7-[4-(4,4'-difluorobenzhydryl)-2,6-dimethylpiperazino-1-methyl]-4-isopropyl-2-methoxy-2,4,6-cycloheptatrien-1-one]",Anti-Lipid Peroxidation (% inhibition) 10 μM,[1],47.8%
same,Anti-Lipid Peroxidation (% inhibition) 50 μM,[1],89.9%
same,inhibition at 10 µM,[2],42%
"COc1cc(C(C)C)ccc(CN2CCN(C(c3ccc(F)cc3)c3ccc(F)cc3)CC2C)c1=O (stereo not drawn) [Compound 22C, 7-[4-(4,4'-difluorobenzhydryl)-2-methylpiperazino-1-methyl]-4-isopropyl-2-methoxy-2,4,6-cycloheptatrien-1-one]",Anti-Lipid Peroxidation (% inhibition) 10 μM,[1],32.8%
same,Anti-Lipid Peroxidation (% inhibition) 50 μM,[1],88.7%
same,inhibition at 10 µM,[2],66%
"COc1cc(C(C)C)ccc(CN2CCCN(C(c3ccc(F)cc3)c3ccc(F)cc3)CC2)c1=O [Compound 23C, 7-[4-(4,4'-difluorobenzhydryl)hexahydro-1H-1,4-diazepin-1-ylmethyl]-4-isopropyl-2-methoxy-2,4,6-cycloheptatrien-1-one]",Anti-Lipid Peroxidation (% inhibition) 10 μM,[1],21.6%
same,Anti-Lipid Peroxidation (% inhibition) 50 μM,[1],90.7%
same,inhibition at 10 µM,[2],86%
